Test results as given in patent publication US20260325521A1, “TREATMENT OF IDIOPATHIC PULMONARY FIBROSIS WITH ENSIFENTRINE” (Verona Pharma Limited, priority 2022, published 2026).
Entries after “also recorded” stand apart in the source; their conditions may differ.

What was measured:
Assay type in all cases: in vivo
IL-6 = test: Clinical study in COPD patients: change in blood IL-6 with inhaled ensifentrine compared with placebo; conditions: inhaled by nebuliser, 3 mg BID, 24 weeks, FIG. 1
Description: (§1) A clinical study was conducted to determine the efficacy of ensifentrine in treating COPD compared with placebo. Ensifentrine was administered by nebuliser at a dose of 3 mg twice daily (BID) for 24 weeks. The study was a multi-centre, randomized, double-blind, parallel-group, placebo-controlled trial with around 800 patients and 5:3 randomization.
(§2) The study population included patients aged 40-80 years with moderate to severe COPD (FEV1 30%-70% p.n., FEV1/forced vital capacity (FVC) ratio <0.7, with mMRC ≥2). The randomization stratified (a) the use of stable background maintenance LAMA or LABA therapy use (approx. 50%. yes or no) and (b) cigarette smoking (current or former). Inhaled corticosteroid (ICS) maintenance therapy was permitted in up to 20% of patients under certain provisions.
(§3) The effect of ensifentrine on the change in blood IL-6 and IL-8 was measured.
(§4) The investigational product and placebo were provided in 2.5 mL unit dose format in an ampule and administered via a nebuliser.

IL-8 = test: Clinical study in COPD patients: change in blood IL-8 with inhaled ensifentrine compared with placebo; conditions: inhaled by nebuliser, 3 mg BID, 24 weeks, FIG. 1
Description: as §1, §2, §3, §4

[1] = system: bleomycin-induced lung fibrosis; test: Rodent model of bleomycin-induced lung fibrosis (Example 2); conditions: rodents, inhalation; dose and period not given; histological fibrotic area
Description: The anti-fibrotic activity of ensifentrine is assessed using a rodent model of bleomycin-induced lung fibrosis.
Bleomycin is administered to anaesthetised rodents to induce lung fibrosis. Ensifentrine is then administered to the test rodents by inhalation for a period, and the rodents are subsequently killed. Lung samples are obtained for histological studies to determine fibrotic area.

[2] = system: inflammatory cell and macrophage infiltration into the rat airways; test: Bleomycin-induced pulmonary fibrosis in rats: BAL differential cell counts
Description: (§5) An in vivo study was conducted to determine the efficacy of ensifentrine in the treatment of bleomycin-induced pulmonary fibrosis in rats in comparison to a control. Rats were administered bleomycin to induce pulmonary fibrosis. After a week, they then received a daily inhaled dosage of ensifentrine or a control over a period of two weeks. At the end of the two weeks, the rats were sacrificed and their airways were analysed for Bronchoalveolar lavage (BAL) differential cell counts and TGF-β concentration.
(§6) The BAL differential cell count provided a total inflammatory cell count so that changes in inflammation following treatment could be observed. TGF-β is a key cytokine in the development of tissue fibrosis. Macrophages and other immune cells produce TGF-β, which induces the differentiation of fibroblasts to myofibroblasts and increases TGF-β expression. Overexpression of active TGF-β1 in the lungs of rodents causes severe and progressive tissue fibrosis, including fibroblastic foci and honeycomb formation.
(§7) At day 0, the rats were subjected to an intratracheal challenge of either 0.9% w/v saline or bleomycin, the latter used to induce pulmonary fibrosis.
(§8) Starting on day 7, two groups of 12 rats from the bleomycin challenge group were administered an inhaled dose of ensifentrine at either 3 mg/kg (Experiment 1) or 10 mg/kg (Experiment 2) on a daily basis for two weeks, terminating on day 21. The ensifentrine was administered as a suspension in the vehicle suspension article.
(§9) Two control experiments were also conducted. Control 1 subjected 12 rats from the saline challenge group to daily administration of the vehicle suspension article via inhalation for the full 21 days. Control 2 subjected 12 rats from the bleomycin challenge group to daily administration of the vehicle suspension article via inhalation for the full 21 days.
(§10) At the end of the 21-day period, the rats were sacrificed and the BAL differential cell counts and the TGF-β concentration data were collected.

TGF-β = test: Bleomycin-induced pulmonary fibrosis in rats: TGF-β concentration
Description: as §5, §6, §7, §8, §9, §10
An in vivo study was conducted to compare the efficacy of ensifentrine and nintedanib in the treatment of bleomycin-induced pulmonary fibrosis in rats. Following the same initial experimental procedure as in Example 3, 12 rats from the bleomycin challenge group were administered a daily dose of 100 mg/kg of nintedanib via an oral gavage for two weeks, starting from day 7 (Experiment 3). A new control experiment was also conducted (Control 3), administering the vehicle suspension article orally in an aqueous solution.
At day 21, the rats were sacrificed and their airways were analysed to calculate the TGF-β concentration. The results were compared to those of Experiments 1 and 2 (Example 3).

[3] = system: bleomycin-induced pulmonary fibrosis; test: Efficacy in treatment of bleomycin-induced pulmonary fibrosis in rats (overall); conditions: inhalation, 3 mg/kg and 10 mg/kg
Description: as §5, §7, §8
Two control experiments were also conducted. Control 1 subjected 12 rats from the saline challenge group to daily administration of the vehicle suspension article via inhalation for the full 21 days. Control 2 subjected 12 rats from the bleomycin challenge group to daily administration of the vehicle suspension article via inhalation for the full 21 days. […]

[4] = Diarrhoea as side effect of inhaled ensifentrine in patients
[5] = inhaled 3 mg/kg/day QD from day 7, day 21, vs bleomycin Control 2 (Experiment 1)
[6] = inhaled 10 mg/kg/day QD from day 7, day 21, vs bleomycin Control 2 (Experiment 2)

COc1cc2c(cc1OC)-c1c/c(=N\c3c(C)cc(C)cc3C)n(CCNC(N)=O)c(=O)n1CC2 [ensifentrine, N-(2-{(2E)-9,10-dimethoxy-4-oxo-2-[(2,4,6-trimethylphenyl)imino]-6,7-dihydro-2H-pyrimido[6,1-a]isoquinolin-3(4H)-yl}ethyl)urea]
blood IL-6 (IL-6): reduce blood IL-6; also recorded: reduction in blood IL-6 | blood IL-8 (IL-8): reduce blood IL-6 and IL-8; also recorded: reduction in blood IL-6 and IL-8 | anti-fibrotic effect in bleomycin-induced lung fibrosis [1]: anti-fibrotic effect | BAL differential cell count ([2]; inhaled 3 mg/kg QD from day 7, day 21 (Experiment 1)): reduction in BAL differential cell count | macrophage infiltration into the airways (BAL differential cell counts) [2, 5]: reduction in total inflammatory cell and macrophage infiltration | total inflammatory cell infiltration into the airways (BAL differential cell counts) [2, 5]: reduction in total inflammatory cell | BAL differential cell count ([2]; inhaled 10 mg/kg QD from day 7, day 21 (Experiment 2)): reduction in BAL differential cell count | macrophage infiltration into the airways (BAL differential cell counts) [2, 6]: reduction in total inflammatory cell and macrophage infiltration | total inflammatory cell infiltration into the airways (BAL differential cell counts) [2, 6]: reduction in total inflammatory cell | TGF-β concentration in the rat lungs compared with nintedanib (TGF-β; day 21, inhaled ensifentrine 3 mg/kg/day (Experiment 1) vs oral nintedanib 100 mg/kg/day (Experiment 3)): lower than the TGF-β concentration following treatment with nintedanib; also recorded: greater reduction in TGF-β concentration than orally administered nintedanib | TGF-β concentration in the rat lungs compared with nintedanib (TGF-β; day 21, inhaled ensifentrine 10 mg/kg/day (Experiment 2) vs oral nintedanib 100 mg/kg/day (Experiment 3)): lower than the TGF-β concentration following treatment with nintedanib; also recorded: greater reduction in TGF-β concentration than orally administered nintedanib | TGF-β concentration (TGF-β; [5]): lower; also recorded: reduction in BAL differential cell count and TGF-β concentration | TGF-β concentration (TGF-β; [6]): lower; also recorded: reduction in BAL differential cell count and TGF-β concentration | efficacy in the treatment of bleomycin-induced pulmonary fibrosis [3]: effective | diarrhoea (side effect) [4]: avoid side effects such as diarrhoea; also recorded: not to be associated with diarrhoea
